# Experimental data reported in patent US11331371B2, “Labyrinthopeptins as anti-viral agents” (Helmholtz-Zentrum Für Infektionsforschung GMBH, priority 2015, dated 2022).
# Where two headings read alike, the source gives them in different places.
# How the values were obtained:
# [1] = test system: GFP-expressing CMV strain HT8-GFP (AD169); assay: Mode of action assay, pretreatment of CMV particles or NHDF cells; format: cell-based, Human cytomegalovirus; details: LabyA1 3 μM, LabyA2 7 μM, PAA 180 μM
# [2] = test system: Dengue Virus (Type 2 New Guinea C); assay: Dose response assay, DENV infection of Huh-7.5 cells, DENV envelope protein immunostaining, high-content imaging; format: cell-based; details: MOI 0.5, 48 h post-infection; for IC50: read-out: IC50 of the anti-viral activity, DENV
# Procedure: Huh-7.5 cells (3×10^4 per well) were seeded in black 96-well optical-bottom plates [Nunc] in full growth medium one day prior to infection. After washing with PBS, 40 μl assay medium (5% FBS) was added to cells containing either Laby A1, Laby A2 (final conc. 50, 16.7, 5.56, 1.85, 0.62, 0.21, 0.069 μg/ml) or a combination of Laby A1 and Laby A2 (25, 8.3, 2.8, 0.93, 0.31, 0.10, 0.034 μg/ml each). Treatments were run in doublets. PBS served as a control. After 30 min of incubation, cells were infected with Dengue Virus (Type 2 New Guinea C) at an MOI of 0.5 to give a final volume of 60 μl/well. After 2 h incubation at room temperature cells were washed with PBS and 100 μl assay medium was added per well. Infected cells were incubated for another 48 h. Hereafter media were removed from the wells and cells were fixed with 4% PFA. Fixed cells were washed extensively with PBS and permeabilized with 0.25% TritonX-100 for 5 min. After blocking with 5% FB in PBS primary antibody was applied (Anti-Dengue Virus E glycoprotein antibody [DE1] (ab41349) [Abcam], 1:100 diluted in 5% FBS/PBS) for 2 h. After washing secondary antibody (Alexa Fluor® 488 Goat Anti-Mouse IgG (H+L) [Life Technologies], 1:1000 diluted in 5% FBS/PBS) was applied for 1 h. Finally, cells were stained with DAPI (500 ng/ml in PBS) for 5 min.
# Fluorescent cells were analyzed by high-content imaging using the automated microscope ImageXpressMicro [Molecular Devices] and the MetaXpress-software. […] The number of total cells/site was determined by automatically counting DAPI-stained nuclei. The percentage of DENV-positive cells was calculated by automatically evaluating the number of Alexa Fluor 488-positive cells in relation to the total cell number. […] IC50-values were calculated by non-linear regression.
# To determine a potential synergistic effect of Labyrinthopeptins A1 and A2 on DENV-infection a dose response assay was performed. […] The number of total cells as well as the percentage of Alexa Fluor 488-positive cells (=DENV positive cells) was determined by high-content fluorescence imaging.
# [3] = Cell-based HTS system for cytotoxic concentration (CC50), FF-luc HEp-2 cells; details: 72 h, concentrations up to 100 μM, read-out: half maximal cytotoxic concentration (CC50)
# Procedure: Cells (e.g. HEp-2 cells), which stably express the reporter gene of a firefly luciferase (FF-luc), may be seeded in a 96-well plate in media, e.g. in Gibco® Advanced MEM. After 72 h of incubation at 37° C. in the presence of increasing concentrations of the labyrinthopeptin, labyrinthopeptin derivative or combination to be tested (e.g. up to 100 μM), the cells may be lysed and the extinction of the FF-luc (RLU) may be measured. Therefore, a plate luminometer (Berthold) may be used. The number of surviving cells is […] proportional to residual luciferase expression.
# A cell-based screening system was used to determine the cytotoxic concentration (CC50) of labyrinthopeptin A1 and A2.
# 1×10^4 HEp-2 cells, which are stably expressing the reporter gene of a firefly luciferase (FF-luc), were seeded in a 96-well plate in 200 μl appropriate media. After 72 h of incubation at 37° C. in the presence of increasing concentrations of labyrinthopeptin A1 or A2 up to 100 μM, the cells have been lysed in 35 μl lysis buffer and the extinction of the FF-luc (RLU) was measured using a plate luminometer (Berthold). The number of surviving cells is […] proportional to residual luciferase expression.
# wild-type RSV (hRSV) = details: read-out: IC50 of the anti-viral activity, RSV; intracellular RSV-P staining, HEp 2 cells, MOI 1, 18 h post infection
# [4] = test system: human respiratory syncytial virus (RSV); details: read-out: IC50, inhibition of RSV induced cell death; FF-luc HEp-2 cells, MOI 3, 72 h, indirect assay
# KSHV = details: read-out: IC50 of the anti-viral activity, KSHV; HEK 293 cells, MOI 0.01, 48 h
# TBEV (Toro isolate) = details: read-out: IC50 of the anti-viral activity, TBEV; Vero-B4 cells, MOI 0.01, 3 days, estimated by visual inspection
# [5] = test system: GFP-expressing CMV (HCMV) strain pHG-1 (HT8-GFP, AD169-based); details: read-out: IC50 of the anti-viral activity, CMV, NHDF cells, MOI 0.5, GFP at day 4 post infection
# [6] = test system: CHIKV glycoprotein-mediated cell entry (CHIKV gp-pseudotyped lentiviral particles); details: CHIKV glycoprotein pseudotypes, 293T cells, 48 h
# [7] = test system: VSV glycoprotein-mediated cell entry (VSV-G-pseudotyped lentiviral particles); details: 48 h
# ZIKV (Strain MR766-NIID) = details: read-out: IC50 of the anti-viral activity, ZIKV; Huh-7.5 cells, MOI 0.5, 48 h, genome copy equivalents
# HCV JcR2a = details: Huh 7.5 Fluc cells, Renilla luciferase after 48 h
# [8] = test system: peripheral blood mononuclear cells (PBMCs); details: cited from earlier work
# Huh 7.5 Fluc cells = assay: Cell viability (firefly luciferase) in the HCV assay
SMILES,"inhibition of viral gene expression (CMV), permanently treated, effective dose ([1]; treatment throughout the infection cycle)","inhibition of viral gene expression (CMV), virus pretreated ([1]; virus pretreated 1 h then diluted 16-fold)","IC50 of the anti-viral activity, DENV [2] [µg/mL]",IC50 [2] [µM],CC50 [3] [µM],IC50 (wild-type RSV (hRSV)) [µM],IC50 [4] [µM],IC50 (KSHV) [µM],IC50 (TBEV (Toro isolate)) [µM],IC50 [5] [µM],IC50 ([5]; listed as Labyrinthopeptin A1) [µM],"IC50 of the anti-viral activity, CHIKV [6] [µg/mL]","IC50 ([6]; read-out: IC50 of the anti-viral activity, CHIKV) [µM]",IC50 [7] [µM],"IC50 of the anti-viral activity, VSV [7] [µg/mL]",IC50 (ZIKV (Strain MR766-NIID)) [µM],"IC50 (HCV JcR2a; read-out: IC50 of the anti-viral activity, HCV (virus entry), 4 h inoculation) [µM]","IC90 (HCV JcR2a; read-out: IC90, inhibition of HCV virus entry) [µM]",inflammatory response in PBMCs [8],cytotoxicity at the tested concentrations in the HCV assay (Huh 7.5 Fluc cells)
"O=C(O)CP(=O)(O)O [PAA, phosphonoacetic acid]",exerted inhibition only when permanently present in the culture medium,not when it was removed after pretreatment of the virus or cells,–,–,–,–,–,–,–,–,–,–,–,–,–,–,–,–,–,–
C#CCCCC(=O)N[C@H]1C[C@]2(CSC[C@@H](C(=O)N[C@H]3CSSC[C@@H](C(=O)O)NC(=O)[C@@H]4CSC[C@]5(C[C@H](NC3=O)C(=O)N[C@@H]([C@@H](C)O)C(=O)NCC(=O)N5)C(=O)N[C@@H](CC(C)C)C(=O)N[C@@H](Cc3ccccc3)C(=O)N[C@@H](C)C(=O)N4)NC(=O)[C@H](CCC(=O)O)NC(=O)[C@H](Cc3c[nH]c4ccccc34)NC(=O)[C@H](CC(C)C)NC2=O)NC(=O)[C@H](Cc2c[nH]c3ccccc23)NC(=O)[C@H](CC(=O)O)NC1=O [LabyA2-hexyn],–,–,14.2,7.03,–,–,–,–,–,–,–,–,–,–,–,–,–,–,–,–
"C/C=C1\NC(=O)[C@H](Cc2ccccc2)NC(=O)[C@@H]2CCCN2C(=O)[C@H](C(C)C)NC(=O)[C@H](Cc2c[nH]c3ccccc23)NC(=O)[C@]23CSC[C@H](NC1=O)C(=O)N[C@H](C(=O)O)CSSC[C@H](NC(=O)[C@@H]1CSC[C@]4(C[C@H](N)C(=O)N[C@@H](CC(N)=O)C(=O)N[C@@H](C)C(=O)N4)C(=O)N[C@@H](C(C)C)C(=O)N[C@@H](Cc4c[nH]c5ccccc45)C(=O)N[C@@H](CCC(=O)O)C(=O)N1)C(=O)N[C@@H](C2)C(=O)N[C@@H]([C@@H](C)O)C(=O)NCC(=O)N3 [LabyA1, Labyrinthopeptin A1]",–,–,–,1.78,79.7,0.39,3.87,2,24.1,1.3,~1.3,1.0 to 3.5,0.5 to 1.7,1.1 to 3.7,2.3 to 7.7,2.22,1.05,9.16,does not cause an inflammatory response,No cytotoxicity was observed
